Reference: the supplement of paper PMC10883282

Experiments:
Assay in all cases: relative viability vs DMSO control (72 h) (fraction); higher = more viable cells
G401 = system: G401
Outline: (§1)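 Relative viability is percent growth read by ATPLite and averaged over up to triplicate wells. Sarcoma cells were seeded in 384-well plates to reach 80–90% confluence and given 2.5 µl of serially diluted compound after 24 h, from source plates of 10 mM to 0.0002 mM. Incubation lasted 72 h at 37 °C, 5% CO2, with 0.1% DMSO vehicle and a 5 µM positive control, and the data were rescaled so 1 equals full and 0 equals none.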

HT1080 = system: HT1080
Outline: as §1

KHOS-240S = system: KHOS-240S
Outline: as §1

MES-SA = system: MES-SA
Outline: as §1

RD-ES = system: RD-ES
Outline: as §1

RD = system: RD
Outline: as §1

SK-ES-1 = system: SK-ES-1
Outline: as §1

SK-LMS-1 = system: SK-LMS-1
Outline: as §1

SW1353 = system: SW1353
Outline: as §1

SW982 = system: SW982
Outline: as §1

SYO-1 = system: SYO-1
Outline: as §1

VA-ES-BJ = system: VA-ES-BJ
Outline: as §1

CCOc1cc2ncc(C#N)c(Nc3ccc(OCc4ccccn4)c(Cl)c3)c2cc1NC(=O)/C=C/CN(C)C [Neratinib]
Conditions | relative viability
G401, 0.00017 µM | 1.02
G401, 0.00051 µM | 1
G401, 0.00152 µM | 0.998
G401, 0.00457 µM | 0.992
G401, 0.01372 µM | 1
G401, 0.04115 µM | 0.95
G401, 0.1235 µM | 0.93
G401, 0.3704 µM | 0.791
G401, 1.111 µM | 0.692
G401, 3.333 µM | 0.56
G401, 10 µM | 0.0616
HT1080, 0.00017 µM | 1.05
HT1080, 0.00051 µM | 1.05
HT1080, 0.00152 µM | 1.028
HT1080, 0.00457 µM | 1.04
HT1080, 0.01372 µM | 1.047
HT1080, 0.04115 µM | 1.07
HT1080, 0.1235 µM | 1.08
HT1080, 0.3704 µM | 0.992
HT1080, 1.111 µM | 0.726
HT1080, 3.333 µM | 0.603
HT1080, 10 µM | 0.00637
KHOS-240S, 0.00017 µM | 1.03
KHOS-240S, 0.00051 µM | 1.06
KHOS-240S, 0.00152 µM | 1.06
KHOS-240S, 0.00457 µM | 1.06
KHOS-240S, 0.01372 µM | 1.05
KHOS-240S, 0.04115 µM | 1.03
KHOS-240S, 0.1235 µM | 1
KHOS-240S, 0.3704 µM | 0.896
KHOS-240S, 1.111 µM | 0.741
KHOS-240S, 3.333 µM | 0.618
KHOS-240S, 10 µM | 0.338
MES-SA, 0.00017 µM | 0.903
MES-SA, 0.00051 µM | 0.889
MES-SA, 0.00152 µM | 0.924
MES-SA, 0.00457 µM | 0.913
MES-SA, 0.01372 µM | 0.897
MES-SA, 0.04115 µM | 0.869
MES-SA, 0.1235 µM | 0.79
MES-SA, 0.3704 µM | 0.517
MES-SA, 1.111 µM | 0.348
MES-SA, 3.333 µM | 0.282
MES-SA, 10 µM | 0.0189
RD, 0.00017 µM | 1.12
RD, 0.00051 µM | 1.1
RD, 0.00152 µM | 1.11
RD, 0.00457 µM | 1.11
RD, 0.01372 µM | 1.09
RD, 0.04115 µM | 1.072
RD, 0.1235 µM | 0.95
RD, 0.3704 µM | 0.714
RD, 1.111 µM | 0.562
RD, 3.333 µM | 0.384
RD, 10 µM | 0.0033
RD-ES, 0.00017 µM | 1.03
RD-ES, 0.00051 µM | 1.01
RD-ES, 0.00152 µM | 0.999
RD-ES, 0.00457 µM | 0.996
RD-ES, 0.01372 µM | 0.997
RD-ES, 0.04115 µM | 0.977
RD-ES, 0.1235 µM | 0.938
RD-ES, 0.3704 µM | 0.737
RD-ES, 1.111 µM | 0.498
RD-ES, 3.333 µM | 0.431
RD-ES, 10 µM | 0.345
SK-ES-1, 0.00017 µM | 1.05
SK-ES-1, 0.00051 µM | 1.02
SK-ES-1, 0.00152 µM | 1.04
SK-ES-1, 0.00457 µM | 1.01
SK-ES-1, 0.01372 µM | 1.01
SK-ES-1, 0.04115 µM | 0.963
SK-ES-1, 0.1235 µM | 0.797
SK-ES-1, 0.3704 µM | 0.397
SK-ES-1, 1.111 µM | 0.298
SK-ES-1, 3.333 µM | 0.235
SK-ES-1, 10 µM | 0.00187
SK-LMS-1, 0.00017 µM | 1.03
SK-LMS-1, 0.00051 µM | 1
SK-LMS-1, 0.00152 µM | 1.06
SK-LMS-1, 0.00457 µM | 1.02
SK-LMS-1, 0.01372 µM | 1.08
SK-LMS-1, 0.04115 µM | 1.06
SK-LMS-1, 0.1235 µM | 0.943
SK-LMS-1, 0.3704 µM | 0.724
SK-LMS-1, 1.111 µM | 0.698
SK-LMS-1, 3.333 µM | 0.646
SK-LMS-1, 10 µM | 0.0104
SW982, 0.00017 µM | 1.06
SW982, 0.00051 µM | 1.07
SW982, 0.00152 µM | 1.05
SW982, 0.00457 µM | 1.04
SW982, 0.01372 µM | 1.05
SW982, 0.04115 µM | 1
SW982, 0.1235 µM | 0.87
SW982, 0.3704 µM | 0.483
SW982, 1.111 µM | 0.379
SW982, 3.333 µM | 0.215
SW982, 10 µM | 0.0234
SW1353, 0.00017 µM | 0.971
SW1353, 0.00051 µM | 0.955
SW1353, 0.00152 µM | 0.923
SW1353, 0.00457 µM | 0.934
SW1353, 0.01372 µM | 0.899
SW1353, 0.04115 µM | 0.807
SW1353, 0.1235 µM | 0.71
SW1353, 0.3704 µM | 0.568
SW1353, 1.111 µM | 0.525
SW1353, 3.333 µM | 0.426
SW1353, 10 µM | 0.0062
SYO-1, 0.00017 µM | 0.957
SYO-1, 0.00051 µM | 0.955
SYO-1, 0.00152 µM | 0.938
SYO-1, 0.00457 µM | 0.932
SYO-1, 0.01372 µM | 0.931
SYO-1, 0.04115 µM | 0.917
SYO-1, 0.1235 µM | 0.875
SYO-1, 0.3704 µM | 0.716
SYO-1, 1.111 µM | 0.581
SYO-1, 3.333 µM | 0.431
SYO-1, 10 µM | -0.0166
VA-ES-BJ, 0.00017 µM | 0.999
VA-ES-BJ, 0.00051 µM | 1.01
VA-ES-BJ, 0.00152 µM | 1.02
VA-ES-BJ, 0.00457 µM | 1
VA-ES-BJ, 0.01372 µM | 0.969
VA-ES-BJ, 0.04115 µM | 0.92
VA-ES-BJ, 0.1235 µM | 0.891
VA-ES-BJ, 0.3704 µM | 0.734
VA-ES-BJ, 1.111 µM | 0.503
VA-ES-BJ, 3.333 µM | 0.483
VA-ES-BJ, 10 µM | 0.46
